Experimental data as given in ChEMBL document CHEMBL1157013, “Novel phospholipid analogues of pan-PPAR activator tetradecylthioacetic acid are more PPAR alpha selective” (Bioorg Med Chem Lett, 2010).
Activity calls are given as the source filed them.

Columns and labels:
Assay type in all cases: cell-based
[1] = biological target: T1, Peroxisome proliferator-activated receptor alpha (Homo sapiens) (UniProt Q07869); test: Activation of PPARalpha expressed in human MCF7 cells at 10 uM by luciferase reporter gene assay
T1 sequence (whole entry): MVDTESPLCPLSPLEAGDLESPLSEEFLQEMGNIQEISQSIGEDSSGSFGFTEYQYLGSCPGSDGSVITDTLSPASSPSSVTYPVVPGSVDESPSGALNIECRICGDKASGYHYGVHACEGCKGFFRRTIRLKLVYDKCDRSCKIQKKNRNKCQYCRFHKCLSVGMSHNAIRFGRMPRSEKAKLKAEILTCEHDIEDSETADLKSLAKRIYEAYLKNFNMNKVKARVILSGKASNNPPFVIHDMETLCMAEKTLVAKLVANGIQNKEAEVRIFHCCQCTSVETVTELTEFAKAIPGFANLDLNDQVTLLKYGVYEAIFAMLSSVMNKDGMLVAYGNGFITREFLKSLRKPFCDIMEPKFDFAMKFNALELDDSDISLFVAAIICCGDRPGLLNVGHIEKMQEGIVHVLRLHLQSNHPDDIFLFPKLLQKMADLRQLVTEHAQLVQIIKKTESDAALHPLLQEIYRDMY

[2] = biological target: T1, Peroxisome proliferator-activated receptor alpha (Homo sapiens); test: Activation of PPARalpha expressed in human MCF7 cells at 30 uM by luciferase reporter gene assay
[3] = biological target: T2, Peroxisome proliferator-activated receptor delta (Homo sapiens) (UniProt Q03181); test: Activation of PPARdelta expressed in human MCF7 cells at 10 uM by luciferase reporter gene assay
T2 sequence (whole entry): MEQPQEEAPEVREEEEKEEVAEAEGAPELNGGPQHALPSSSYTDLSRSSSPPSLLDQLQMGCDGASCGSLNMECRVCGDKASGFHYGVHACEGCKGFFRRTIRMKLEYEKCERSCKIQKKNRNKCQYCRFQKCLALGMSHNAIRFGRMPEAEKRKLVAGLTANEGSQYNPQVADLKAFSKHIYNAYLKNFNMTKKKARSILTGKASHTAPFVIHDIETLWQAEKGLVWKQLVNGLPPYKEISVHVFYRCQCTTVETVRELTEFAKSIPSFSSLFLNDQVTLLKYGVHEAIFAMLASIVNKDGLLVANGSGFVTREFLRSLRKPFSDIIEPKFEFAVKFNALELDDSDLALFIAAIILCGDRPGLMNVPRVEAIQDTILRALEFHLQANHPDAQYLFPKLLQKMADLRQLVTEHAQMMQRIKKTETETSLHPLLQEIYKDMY

[4] = biological target: T2, Peroxisome proliferator-activated receptor delta (Homo sapiens); test: Activation of PPARdelta expressed in human MCF7 cells at 30 uM by luciferase reporter gene assay
[5] = biological target: T3, Peroxisome proliferator-activated receptor gamma (Homo sapiens) (UniProt P37231); test: Activation of PPARgamma expressed in human MCF7 cells at 10 uM by luciferase reporter gene assay
T3 sequence (whole entry): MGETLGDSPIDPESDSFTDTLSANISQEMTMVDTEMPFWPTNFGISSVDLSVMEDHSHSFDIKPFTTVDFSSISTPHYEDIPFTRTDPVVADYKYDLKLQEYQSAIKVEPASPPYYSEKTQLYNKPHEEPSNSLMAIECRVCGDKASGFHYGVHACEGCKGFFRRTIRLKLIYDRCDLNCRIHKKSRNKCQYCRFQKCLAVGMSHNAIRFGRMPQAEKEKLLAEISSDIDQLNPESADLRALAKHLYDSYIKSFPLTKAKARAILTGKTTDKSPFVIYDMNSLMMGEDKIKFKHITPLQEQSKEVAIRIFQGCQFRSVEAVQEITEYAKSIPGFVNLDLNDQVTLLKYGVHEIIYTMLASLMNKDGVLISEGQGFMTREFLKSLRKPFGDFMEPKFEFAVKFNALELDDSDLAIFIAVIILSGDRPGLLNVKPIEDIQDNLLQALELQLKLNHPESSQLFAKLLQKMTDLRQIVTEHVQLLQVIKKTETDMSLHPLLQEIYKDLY

[6] = biological target: T3, Peroxisome proliferator-activated receptor gamma (Homo sapiens); test: Activation of PPARgamma expressed in human MCF7 cells at 30 uM by luciferase reporter gene assay

Measured: Activity

CCCCCCCCCCCCCCSCC(=O)OC[C@H](COP(=O)(O)OCC(O)CO)OC(=O)CSCCCCCCCCCCCCCC (stereo not given in full)
active: all assays above

CCCCCCCCCCCCCCSCC(=O)O
active: [2] | [4] | [6]

CCCCCCCCCCCCCCSCC(=O)OC[C@@H](O)COP(=O)([O-])OCC[N+](C)(C)C
active: all assays above
